From the NIST ThermoML archive (doi:10.1021/je050001c)
Numbers after ± are expanded uncertainties.

Conditions: 101.33 kPa, Liquid
[1] = 293.15 K, Falling or rolling sphere viscometry
[2] = 298.15 K, Falling or rolling sphere viscometry
[3] = 303.15 K, Falling or rolling sphere viscometry
[4] = 308.15 K, Falling or rolling sphere viscometry
[5] = 313.15 K, Falling or rolling sphere viscometry
[6] = 318.15 K, Falling or rolling sphere viscometry
[7] = 323.15 K, Falling or rolling sphere viscometry
[8] = 328.15 K, Falling or rolling sphere viscometry
[9] = 333.15 K, Falling or rolling sphere viscometry
[10] = 338.15 K, Falling or rolling sphere viscometry
[11] = 343.15 K, Falling or rolling sphere viscometry

Structure (SMILES) | mass density (293.15 K) [kg/m3] | viscosity [1] [mPa·s] | mass density (298.15 K) [kg/m3] | viscosity [2] [mPa·s] | mass density (303.15 K) [kg/m3] | viscosity [3] [mPa·s] | mass density (308.15 K) [kg/m3] | viscosity [4] [mPa·s] | mass density (313.15 K) [kg/m3] | viscosity [5] [mPa·s] | mass density (318.15 K) [kg/m3] | viscosity [6] [mPa·s] | mass density (323.15 K) [kg/m3] | viscosity [7] [mPa·s] | mass density (328.15 K) [kg/m3] | viscosity [8] [mPa·s] | mass density (333.15 K) [kg/m3] | viscosity [9] [mPa·s] | mass density (338.15 K) [kg/m3] | mass density (343.15 K) [kg/m3] | further results
CCCC(=O)OCC [ethyl butanoate] | 876.91 ± 6.4 | 0.662 ± 0.01 | 874.42 ± 6.5 | 0.62 ± 0.009 | 870.13 ± 6.5 | 0.583 ± 0.009 | 866.21 ± 6.5 | 0.549 ± 0.009 | 864.31 ± 6.5 | 0.519 ± 0.009 | 861.32 ± 6.5 | 0.491 ± 0.009 | 858.43 ± 6.5 | 0.465 ± 0.009 | 854.44 ± 6.5 | 0.442 ± 0.009 | 853.89 ± 6.5 | 0.42 ± 0.009 | 851.32 ± 6.6 | 850.04 ± 6.6 | viscosity [10]: 0.4 ± 0.009 mPa·s; viscosity [11]: 0.382 ± 0.009 mPa·s
CCCCCC(=O)OCC [ethyl hexanoate] | 879.01 ± 3.3 | 0.816 ± 0.011 | 872.53 ± 3.4 | 0.757 ± 0.011 | 869.31 ± 3.5 | 0.704 ± 0.011 | 866.74 ± 3.5 | 0.656 ± 0.01 | 863.28 ± 3.6 | 0.614 ± 0.01 | 860.19 ± 3.6 | 0.576 ± 0.01 | 856.42 ± 3.7 | 0.541 ± 0.01 | 851.93 ± 3.8 | 0.509 ± 0.009 | 847.88 ± 3.8 | 0.482 ± 0.009 | 845.32 ± 3.9 | 841.46 ± 4 | viscosity [10]: 0.456 ± 0.009 mPa·s; viscosity [11]: 0.429 ± 0.009 mPa·s
CCOC=O [ethyl methanoate] | 917.82 ± 2.8 | 0.402 ± 0.009 | 912.06 ± 2.9 | 0.381 ± 0.009 | 907.68 ± 2.9 | 0.362 ± 0.009 | 899.54 ± 3 | 0.345 ± 0.009 | 891.5 ± 3.2 | 0.329 ± 0.009 | 887.41 ± 3.2 | 0.314 ± 0.009 | 882.14 ± 3.3 | 0.3 ± 0.009 |  |  |  |  |  |  | 
CCOC(=O)CC [ethyl propanoate] | 891.62 ± 6.4 | 0.523 ± 0.009 | 884.1 ± 6.4 | 0.492 ± 0.009 | 879.31 ± 6.4 | 0.464 ± 0.009 | 874.12 ± 6.5 | 0.441 ± 0.009 | 870.61 ± 6.5 | 0.418 ± 0.009 | 867.34 ± 6.5 | 0.398 ± 0.009 | 864.33 ± 6.5 | 0.378 ± 0.009 | 860.89 ± 6.5 | 0.36 ± 0.009 | 858.14 ± 6.5 | 0.344 ± 0.008 | 856.81 ± 6.5 | 853.48 ± 6.5 | viscosity [10]: 0.329 ± 0.008 mPa·s; viscosity [11]: 0.315 ± 0.008 mPa·s
CCCCCCOC(=O)CCC [hexyl butanoate] | 860.73 ± 3.6 |  | 851 ± 3.8 |  | 846.52 ± 3.9 |  | 841.51 ± 4 |  | 837.46 ± 4 |  | 834.65 ± 4.1 |  | 830.78 ± 4.1 |  | 828.19 ± 4.2 |  | 826.77 ± 4.2 |  | 823.81 ± 4.2 | 820.76 ± 4.3 | viscosity (293.15 K): 1.351 ± 0.044 mPa·s; viscosity (298.15 K): 1.234 ± 0.04 mPa·s; viscosity (303.15 K): 1.131 ± 0.037 mPa·s; viscosity (308.15 K): 1.014 ± 0.033 mPa·s; viscosity (313.15 K): 0.961 ± 0.031 mPa·s; viscosity (318.15 K): 0.889 ± 0.029 mPa·s; viscosity (323.15 K): 0.825 ± 0.027 mPa·s; viscosity (328.15 K): 0.768 ± 0.025 mPa·s; viscosity (333.15 K): 0.716 ± 0.023 mPa·s; viscosity (338.15 K): 0.669 ± 0.022 mPa·s; viscosity (343.15 K): 0.627 ± 0.02 mPa·s
CCCCCCOC(C)=O [hexyl ethanoate] | 872.9 ± 3.4 | 1.118 ± 0.013 | 867.3 ± 3.5 | 1.036 ± 0.012 | 862.6 ± 3.6 | 0.962 ± 0.012 | 858.33 ± 3.6 | 0.895 ± 0.011 | 854.9 ± 3.7 | 0.836 ± 0.011 | 848.84 ± 3.8 | 0.782 ± 0.011 | 844.21 ± 3.9 | 0.733 ± 0.01 | 839.64 ± 4 | 0.689 ± 0.01 | 835.15 ± 4 | 0.649 ± 0.01 | 831.4 ± 4.1 | 826.3 ± 4.2 | viscosity [10]: 0.612 ± 0.01 mPa·s; viscosity [11]: 0.579 ± 0.01 mPa·s
